Converted amounts (≈) assume the structure as drawn.
Legend:
Format in all cases: functional
Candida parapsilosis = assay: Antifungal activity against Candida parapsilosis by broth microdilution method; conditions: Lodderomyces parapsilosis
Candida tropicalis = assay: Antifungal activity against Candida tropicalis by broth microdilution method
Candida albicans = assay: Antifungal activity against Candida albicans ATCC Y0109 after 24 hrs by broth microdilution method
Aspergillus fumigatus = assay: Antifungal activity against Aspergillus fumigatus by broth microdilution method
Trichophyton rubrum = assay: Antifungal activity against Trichophyton rubrum by broth microdilution method
Cryptococcus neoformans = assay: Antifungal activity against Cryptococcus neoformans ATCC BLS108 after 72 hrs by broth microdilution method
Fusarium = assay: Antifungal activity against Fusarium by broth microdilution method
Nannizzia gypsea = assay: Antifungal activity against Microsporum gypseum by broth microdilution method

SMILES	MIC80 (Candida parapsilosis)	MIC80 (Candida tropicalis)	MIC80 (Candida albicans)	MIC80 (Aspergillus fumigatus)	MIC80 (Trichophyton rubrum)	MIC80 (Cryptococcus neoformans)	MIC80 (Fusarium)	MIC80 (Nannizzia gypsea)
O=C(/C=C/c1cccc(Br)c1)Nc1ccc(N2CCN(CC(O)(Cn3cncn3)c3ccc(F)cc3F)CC2)c(F)c1 (configuration not stated)	0.25 µg/mL (≈ 0.39 µM)	0.0625 µg/mL (≈ 0.0974 µM)	1 µg/mL (≈ 1.56 µM)	4 µg/mL (≈ 6.24 µM)	0.25 µg/mL (≈ 0.39 µM)	0.0156 µg/mL (≈ 0.0243 µM)	1 µg/mL (≈ 1.56 µM)	0.25 µg/mL (≈ 0.39 µM)
O=C(/C=C/c1ccc(F)cc1)Nc1ccc(N2CCN(CC(O)(Cn3cncn3)c3ccc(F)cc3F)CC2)cc1 (configuration not stated)	0.25 µg/mL (≈ 0.444 µM)	0.25 µg/mL (≈ 0.444 µM)	0.0625 µg/mL (≈ 0.111 µM)	0.0625 µg/mL (≈ 0.111 µM)	0.0039 µg/mL (≈ 0.00693 µM)	0.25 µg/mL (≈ 0.444 µM)	1 µg/mL (≈ 1.78 µM)	0.0625 µg/mL (≈ 0.111 µM)
O=C(/C=C/c1cccc(F)c1)Nc1ccc(N2CCN(CC(O)(Cn3cncn3)c3ccc(F)cc3F)CC2)c(F)c1 (configuration not stated)	0.0156 µg/mL (≈ 0.0269 µM)	0.25 µg/mL (≈ 0.431 µM)	0.25 µg/mL (≈ 0.431 µM)	4 µg/mL (≈ 6.89 µM)	0.25 µg/mL (≈ 0.431 µM)	0.25 µg/mL (≈ 0.431 µM)	0.25 µg/mL (≈ 0.431 µM)	0.25 µg/mL (≈ 0.431 µM)
O=C(/C=C/c1ccccc1[N+](=O)[O-])Nc1ccc(N2CCN(CC(O)(Cn3cncn3)c3ccc(F)cc3F)CC2)cc1 (configuration not stated)	0.25 µg/mL (≈ 0.424 µM)	0.0625 µg/mL (≈ 0.106 µM)	0.0156 µg/mL (≈ 0.0265 µM)	> 64 µg/mL	0.0625 µg/mL (≈ 0.106 µM)	1 µg/mL (≈ 1.7 µM)	4 µg/mL (≈ 6.78 µM)	0.25 µg/mL (≈ 0.424 µM)
COc1ccc(/C=C/C(=O)Nc2ccc(N3CCN(CC(O)(Cn4cncn4)c4ccc(F)cc4F)CC3)c(F)c2)cc1OC (configuration not stated)	0.25 µg/mL (≈ 0.402 µM)	1 µg/mL (≈ 1.61 µM)	0.25 µg/mL (≈ 0.402 µM)	> 64 µg/mL	4 µg/mL (≈ 6.42 µM)	1 µg/mL (≈ 1.61 µM)	4 µg/mL (≈ 6.42 µM)	0.25 µg/mL (≈ 0.402 µM)
O=C(/C=C/c1ccc(Cl)c(Cl)c1)Nc1ccc(N2CCN(CC(O)(Cn3cncn3)c3ccc(F)cc3F)CC2)cc1 (configuration not stated)	0.0625 µg/mL (≈ 0.102 µM)	0.0625 µg/mL (≈ 0.102 µM)	0.0156 µg/mL (≈ 0.0254 µM)	4 µg/mL (≈ 6.52 µM)	0.0156 µg/mL (≈ 0.0254 µM)	0.25 µg/mL (≈ 0.408 µM)	0.25 µg/mL (≈ 0.408 µM)	0.25 µg/mL (≈ 0.408 µM)
O=C(/C=C/c1cccc([N+](=O)[O-])c1)Nc1ccc(N2CCN(CC(O)(Cn3cncn3)c3ccc(F)cc3F)CC2)c(F)c1 (configuration not stated)	0.0625 µg/mL (≈ 0.103 µM)	0.0625 µg/mL (≈ 0.103 µM)	0.0039 µg/mL (≈ 0.00642 µM)	> 64 µg/mL	0.0625 µg/mL (≈ 0.103 µM)	0.0625 µg/mL (≈ 0.103 µM)	0.0625 µg/mL (≈ 0.103 µM)	0.0625 µg/mL (≈ 0.103 µM)
O=C(/C=C/c1ccc(Br)cc1)Nc1ccc(N2CCN(CC(O)(Cn3cncn3)c3ccc(F)cc3F)CC2)c(F)c1 (configuration not stated)	0.0625 µg/mL (≈ 0.0974 µM)	0.0156 µg/mL (≈ 0.0243 µM)	0.25 µg/mL (≈ 0.39 µM)	1 µg/mL (≈ 1.56 µM)	0.0625 µg/mL (≈ 0.0974 µM)	0.0156 µg/mL (≈ 0.0243 µM)	1 µg/mL (≈ 1.56 µM)	0.0625 µg/mL (≈ 0.0974 µM)
O=C(/C=C/c1ccccc1F)Nc1ccc(N2CCN(CC(O)(Cn3cncn3)c3ccc(F)cc3F)CC2)c(F)c1 (configuration not stated)	0.0625 µg/mL (≈ 0.108 µM)	0.0625 µg/mL (≈ 0.108 µM)	0.25 µg/mL (≈ 0.431 µM)	4 µg/mL (≈ 6.89 µM)	0.0625 µg/mL (≈ 0.108 µM)	0.25 µg/mL (≈ 0.431 µM)	1 µg/mL (≈ 1.72 µM)	0.25 µg/mL (≈ 0.431 µM)
N#Cc1cccc(/C=C/C(=O)Nc2ccc(N3CCN(CC(O)(Cn4cncn4)c4ccc(F)cc4F)CC3)cc2)c1 (configuration not stated)	0.25 µg/mL (≈ 0.439 µM)	0.25 µg/mL (≈ 0.439 µM)	0.0156 µg/mL (≈ 0.0274 µM)	> 64 µg/mL	1 µg/mL (≈ 1.76 µM)	1 µg/mL (≈ 1.76 µM)	16 µg/mL (≈ 28.1 µM)	0.0625 µg/mL (≈ 0.11 µM)
OC(Cn1cncn1)(Cn1cncn1)c1ccc(F)cc1F [FLUCONAZOLE]	1 µg/mL (≈ 3.27 µM)	1 µg/mL (≈ 3.27 µM)	4 µg/mL (≈ 13.1 µM)	64 µg/mL (≈ 209 µM)	0.25 µg/mL (≈ 0.816 µM)	1 µg/mL (≈ 3.27 µM)	16 µg/mL (≈ 52.2 µM)	0.25 µg/mL (≈ 0.816 µM)
O=C(/C=C/c1ccc(Cl)cc1)Nc1ccc(N2CCN(CC(O)(Cn3cncn3)c3ccc(F)cc3F)CC2)cc1 (configuration not stated)	0.25 µg/mL (≈ 0.432 µM)	0.25 µg/mL (≈ 0.432 µM)	0.0625 µg/mL (≈ 0.108 µM)	64 µg/mL (≈ 111 µM)	0.25 µg/mL (≈ 0.432 µM)	1 µg/mL (≈ 1.73 µM)	4 µg/mL (≈ 6.91 µM)	0.25 µg/mL (≈ 0.432 µM)
O=C(/C=C/c1ccccc1Cl)Nc1ccc(N2CCN(CC(O)(Cn3cncn3)c3ccc(F)cc3F)CC2)c(F)c1 (configuration not stated)	0.25 µg/mL (≈ 0.419 µM)	0.25 µg/mL (≈ 0.419 µM)	1 µg/mL (≈ 1.67 µM)	4 µg/mL (≈ 6.7 µM)	0.25 µg/mL (≈ 0.419 µM)	1 µg/mL (≈ 1.67 µM)	1 µg/mL (≈ 1.67 µM)	0.25 µg/mL (≈ 0.419 µM)
O=C(/C=C/c1ccccc1)Nc1ccc(N2CCN(CC(O)(Cn3cncn3)c3ccc(F)cc3F)CC2)cc1 (configuration not stated)	0.0625 µg/mL (≈ 0.115 µM)	0.0625 µg/mL (≈ 0.115 µM)	0.0156 µg/mL (≈ 0.0286 µM)	16 µg/mL (≈ 29.4 µM)	0.0039 µg/mL (≈ 0.00716 µM)	0.25 µg/mL (≈ 0.459 µM)	0.0625 µg/mL (≈ 0.115 µM)	0.25 µg/mL (≈ 0.459 µM)

— ChEMBL document CHEMBL1641470, “New azoles with antifungal activity: Design, synthesis, and molecular docking” (2011)
